Several values for one entry are separate records, joined by “and”; a condition that tells them apart may be missing. Identical values can stand only once.
Tests used:
[1] = system: MEC-1 cells; test: ADCC / cytotoxicity assay: killing of MEC-1 cells by MOR208 and fludarabine alone and in combination; type: cell-based, human; settings: for normalized specific killing: background subtracted, combination set to 1, Fludarabine 18 μg/ml, MOR208 66 pM; for % dead cells: raw data, MOR208 66 pm, FLU 18 μg/ml, 72 h pre-incubation, E:T 30:1, 4 h
[2] = system: RAMOS human lymphoma cells; type: in vivo, SCID mice; settings: MOR208 3 mg/kg i.v. twice weekly for 3 weeks; FLU 125 mg/kg i.p. once daily Day 0-5; combination of both; vehicle 18.5
[3] = system: RAMOS human Burkitt's lymphoma cells; test: Subcutaneously (SC)-implanted human Ramos Burkitt's B-cell lymphoma tumor growth model; type: in vivo, SCID mice; settings: for Increased time to 4000 mg [%] / Reduced tumor growth at study Day 38 (%): control 0; for Tumor Volume at study day 38, Average: vehicle average 4014
[4] = biological target: T1, Human CD19 (human, UniProt P15391 20-556); test: cell-based or functional assay
T1 sequence: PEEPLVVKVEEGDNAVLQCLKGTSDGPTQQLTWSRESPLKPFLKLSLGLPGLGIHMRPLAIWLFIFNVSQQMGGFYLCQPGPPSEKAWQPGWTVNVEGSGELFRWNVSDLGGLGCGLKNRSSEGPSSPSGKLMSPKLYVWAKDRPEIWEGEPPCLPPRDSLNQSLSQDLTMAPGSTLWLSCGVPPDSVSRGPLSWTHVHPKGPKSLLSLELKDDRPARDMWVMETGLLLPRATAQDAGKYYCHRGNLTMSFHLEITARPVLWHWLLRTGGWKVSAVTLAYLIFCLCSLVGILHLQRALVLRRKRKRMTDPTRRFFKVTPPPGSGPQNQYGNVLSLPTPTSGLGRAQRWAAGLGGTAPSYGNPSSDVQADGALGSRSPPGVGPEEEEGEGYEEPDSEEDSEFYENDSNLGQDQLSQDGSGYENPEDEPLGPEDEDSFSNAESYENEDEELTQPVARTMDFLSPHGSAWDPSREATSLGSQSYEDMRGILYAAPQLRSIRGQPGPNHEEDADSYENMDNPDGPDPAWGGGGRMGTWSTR

[5] = Experiment 1 (PBMC donor 1), control RefMab33
[6] = Experiment 2 (PBMC donor 2), control RefMab33
[7] = Experiment 3 (PBMC donor 3), control PBMCs alone
[8] = MOR208 10 mg/kg, FLU 125 mg/kg, combination of MOR208 and FLU 125
[9] = MOR208 10 mg/kg, Fludarabine 125 mg/kg IP Q1Dx5, combination MOR208/FLU 125
[10] = MOR208 10 mg/kg, Fludarabine 125 mg/kg, MOR208 + FLU 125 combination

Molecule: Fludarabine [reference compound]
- normalized specific killing ([1]; Average of Experiments 1-3): 0.7
- % dead cells [1, 5]: 36.39%
- normalized specific killing ([1]; Experiment 1): 0.6
- % dead cells [1, 6]: 38.48%
- normalized specific killing ([1]; Experiment 2): 0.7
- % dead cells [1, 7]: 57.27%
- normalized specific killing ([1]; Experiment 3): 0.8
- EC50 (MEC-1 cell killing) ([1]; FLU, test concentration stated to be near or at the EC50): ~18 µg/mL
- Median Survival Time [2]: 22 days
- Increased time to 4000 mg [%] ([3]; FLU 250 mg/kg): 30.19%
- Reduced tumor growth at study Day 38 (%) ([3]; FLU 250 mg/kg): 64.8%
- Increased time to 4000 mg [%], normalized to Fractional Product combination = 1 ([3]; Fludarabine 250 mg/kg): 0.8
- Reduced tumor growth at study Day 38 (%), normalized to Fractional Product combination = 1 ([3]; Fludarabine 250 mg/kg): 0.9
- Tumor Volume at study day 38, Average ([3]; Fludarabine 250 mg/kg IP Q1Dx5): 1413 mm^3
- Increased time to 4000 mg [%] [3, 8]: 22.37%
- Reduced tumor growth at study Day 38 (%) [3, 8]: 48.3%
- Tumor Volume at study day 38, Average [3, 9]: 2073 mm^3
- Increased time to 4000 mg [%], normalized to Fractional Product combination = 1 [3, 10]: 0.62
- Reduced tumor growth at study Day 38 (%), normalized to Fractional Product combination = 1 [3, 10]: 0.75

B1: MOR208 (antibody, human IgG1, kappa, V domains shown)
VH: EVQLVESGGGLVKPGGSLKLSCAASGYTFTSYVMHWVRQAPGKGLEWIGYINPYNDGTKYNEKFQGRVTISSDKSISTAYMELSSLRSEDTAMYYCARGTYYYGTRVFDYWGQGTLVTVSS
VL: DIVMTQSPATLSLSPGERATLSCRSSKSLQNVNGNTYLYWFQQKPGQSPQLLIYRMSNLNSGVPDRFSGSGSGTEFTLTISSLEPEDFAVYYCMQHLEYPITFGAGTKLEIKR
- EC50 of MEC-1 cell killing (ADCC) [4]: ~0.066 nM

B2: MOR208: anti-CD19 antibody; variable domains in FIG. 3, Fc regions in FIG. 4 (antibody)
heavy: EVQLVESGGGLVKPGGSLKLSCAASGYTFTSYVMHWVRQAPGKGLEWIGYINPYNDGTKYNEKFQGRVTISSDKSISTAYMELSSLRSEDTAMYYCARGTYYYGTRVFDYWGQGTLVTVSSASTKGPSVFPLAPSSKSTSGGTAALGCLVKDYFPEPVTVSWNSGALTSGVHTFPAVLQSSGLYSLSSWTVPSSSLGTQTYICNVNHKPSNTKVDKKVEPKSCDKTHTCPPCPAPELLGGPDVFLFPPKPKDTLMISRTPEVTCVVVDVSHEDPEVQFNWYVDGVEVHNAKTKPREEQFNSTFRVVSVLTVVHQDWLNGKEYKCKVSNKALPAPEEKTISKTKGQPREPQVYTLPPSREEMTKNQVSLTCLVKGFYPSDIAVEWESNGQPENNYKTTPPMLDSDGSFFLYSKLTVDKSRWQQGNVFSCSVMHEALHNHYTQKSLSLSPGK
light: DIVMTQSPATLSLSPGERATLSCRSSKSLQNVNGNTYLYWFQQKPGQSPQLLIYRMSNLNSGVPDRFSGSGSGTEFTLTISSLEPEDFAVYYCMQHLEYPITFGAGTKLEIKRTVAAPSVFIFPPSDEQLKSGTASVVCLLNNFYPREAKVQWKVDNALQSGNSQESVTEQDSKDSTYSLSSTLTLSKADYEKHKVYACEVTHQGLSSPVTKSFNRGEC
- normalized specific killing ([1]; Average of Experiments 1-3): 0.5
- % dead cells [1, 5]: 35.2%
- normalized specific killing ([1]; Experiment 1): 0.6
- % dead cells [1, 6]: 29.8%
- normalized specific killing ([1]; Experiment 2): 0.4
- % dead cells [1, 7]: 47.01%
- normalized specific killing ([1]; Experiment 3): 0.5
- Median Survival Time [2]: 23.5 days
- Increased time to 4000 mg [%] [3, 8]: 17.52%
- Reduced tumor growth at study Day 38 (%) [3, 8]: 38.5%
- Tumor Volume at study day 38, Average [3, 9]: 2468 mm^3
- Increased time to 4000 mg [%], normalized to Fractional Product combination = 1 [3, 10]: 0.48
- Reduced tumor growth at study Day 38 (%), normalized to Fractional Product combination = 1 [3, 10]: 0.57
- Tumor Volume at study day 38 ([3]; single values (Group 1-8), MOR208 10 mg/kg, Fludarabine 125 mg/kg IP Q1Dx5, combination MOR208/FLU 125): 1764 mm^3 and 1862 mm^3 and 3402 mm^3 and 2560 mm^3 and 2816 mm^3 and 2138 mm^3 and 2025 mm^3 and 3179 mm^3
